“And” between values parts separate entries of the source, which are not always exact repeats. Equal values may be shown once.
How the values were obtained:
[1] = test system: HDQ-P1; assay: normalised viability (% of control), CellTiter-Blue; higher = more viable cells (about 100 = DMSO control); conditions: incubation time: 72 h
Protocol: (§1)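 DSRT, CellTiter-Blue viability, 72 h incubation. Signal is normalised to DMSO and benzethonium chloride controls. Value is the normalised response at dose 9.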

[2] = test system: CAL-51; assay: as above; conditions: incubation time: 72 h
Protocol: as §1

[3] = test system: MDA-MB-453; assay: as above; conditions: incubation time: 72 h
Protocol: as §1

[4] = test system: CAL-85-1; assay: as above; conditions: incubation time: 72 h
Protocol: as §1

[5] = test system: CAL-148; assay: as above; conditions: incubation time: 72 h
Protocol: as §1

[6] = test system: DU-4475; assay: as above; conditions: incubation time: 72 h
Protocol: as §1

[7] = test system: Hs578T; conditions: 72 h
Summary of the method: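 Breast cancer cell lines (20 µl suspension) were seeded into 384-well plates holding compound at 5 concentrations in 10-fold steps over a compound-specific 10,000-fold range, then incubated 72 h. Cell death was read first by CellTox Green fluorescence (485/520 nm), then viability by CellTiter-Glo luminescence after 10 min at room temperature. Each plate was normalised to 0.1 % DMSO and a positive kill control. EC50 was fitted from the dose-response curves and censored at the top concentration.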

[8] = test system: HCC1143; assay: normalised viability (% of control), CellTiter-Blue; higher = more viable cells (about 100 = DMSO control); conditions: incubation time: 72 h
Summary of the method: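 Breast cancer cell lines were treated for 72 h in 384-well format and measured by CellTiter-Blue fluorescence at 560/590 nm. Results were normalised per plate to vehicle (100) and a positive kill control (0). The entry is normalised viability at a single listed concentration of the series.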

Structure (SMILES) | normalised viability [1] | normalised viability [2] | normalised viability [3] | normalised viability [4] | normalised viability [5] | normalised viability [6] | EC50, CellTiter-Glo [7] | normalised viability ([8]; 100 nM) | normalised viability ([8]; 10 nM) | normalised viability ([8]; 9.9 nM)
C[C@]12O[C@H](C[C@]1(O)CO)n1c3ccccc3c3c4c(c5c6ccccc6n2c5c31)CNC4=O [Lestaurtinib] (1000 nM) | 77.9% | 55% | 28.9% | 39.7% | 90.9% | 2.87% |  |  |  | 
O=C(NC[C@H](O)CO)c1ccncc1Nc1ccc(I)cc1F [Pimasertib] |  |  |  |  |  |  | 5910 nM |  |  | 
COc1ccc(-c2cc3c(C)nc(N)nc3n([C@H]3CC[C@H](OCCO)CC3)c2=O)cn1 (10000 nM) | 5.55% | 2.53% | 2.5% | 5.23% | 1.46% | 0.68% |  |  |  | 
Nc1cccc2c1CN(C1CCC(=O)NC1=O)C2=O (stereo not drawn) [Lenalidomide] |  |  |  |  |  |  |  | 81.8% and 68% |  | 
CCC/C=C/C=C/C(=O)O[C@H]1/C(=C/C(=O)OC)C[C@H]2C[C@H]([C@@H](C)O)OC(=O)C[C@H](O)C[C@@H]3C[C@H](OC(C)=O)C(C)(C)[C@](O)(C[C@@H]4C/C(=C/C(=O)OC)C[C@H](/C=C/C(C)(C)[C@]1(O)O2)O4)O3 [Bryostatin 1] (100 nM) | 104% | 109% | 102% | 99.2% | 67.6% | 77.3% |  |  |  | 
CC(=O)OC[C@H]1O[C@@H]([S-])[C@H](OC(C)=O)[C@@H](OC(C)=O)[C@@H]1OC(C)=O.CCP(CC)CC.[Au+] [Auranofin] |  |  |  |  |  |  | 1020 nM |  |  | 
COc1nc(N)nc2c1ncn2[C@@H]1O[C@H](CO)[C@@H](O)[C@@H]1O [Nelarabine] (10000 nM) | 69.1% and 69% | 99.6% and 98.4% | 84.5% and 97.5% | 100% and 103% | 106% and 96.7% | 109% and 104% |  |  |  | 
O=C1c2c(O)ccc(O)c2C(=O)c2c(NCCNCCO)ccc(NCCNCCO)c21 [Mitoxantrone] |  |  |  |  |  |  |  |  | 66.9% | 
O=C(CCBr)N1CCN(C(=O)CCBr)CC1 [Pipobroman] (10000 nM) | 109% | 108% | 7.05% | 85.6% | 84.8% | 112% |  |  |  | 
C[C@]12C=CC(=O)C=C1CC[C@@H]1[C@@H]2[C@@H](O)C[C@@]2(C)[C@H]1CC[C@]2(O)C(=O)CO [Prednisolone] |  |  |  |  |  |  |  | 97.8% |  | 
Cc1nc(Nc2ncc(C(=O)Nc3c(C)cccc3Cl)s2)cc(N2CCN(CCO)CC2)n1 [Dasatinib] (1000 nM) | 11.7% and 10.7% | 36.7% and 40.3% | 84.2% and 84.5% | 37.7% and 37.6% | 112% and 97.6% | 100% and 110% |  |  |  | 
Nc1nc(=O)c2c([nH]1)NCC(CNc1ccc(C(=O)N[C@@H](CCC(=O)O)C(=O)O)cc1)N2C=O (mixture of isomers) [Folinic acid] |  |  |  |  |  |  |  |  |  | 86.1%
O=C(NC[C@H](O)CO)c1ccncc1Nc1ccc(I)cc1F |  |  |  |  |  |  |  | 66% |  | 
CO[C@@H](C(=O)N1Cc2[nH]nc(NC(=O)c3ccc(N4CCN(C)CC4)cc3)c2C1)c1ccccc1 [Danusertib] (10000 nM) | 10.4% | 17.7% | 31.3% | 32.1% | 69.4% | 13.9% |  |  |  | 
Cn1cc(CNCC2CCN(c3ncc(C(=O)NO)cn3)CC2)c2ccccc21 [Quisinostat] |  |  |  |  |  |  | 59.1 nM |  |  | 
Nc1cccc2c1CN(C1CCC(=O)NC1=O)C2=O (stereo not drawn) [Lenalidomide] (10000 nM) | 106% and 110% | 97.1% and 99.6% | 94.2% and 92.1% | 81.6% and 86.1% | 86.1% and 106% | 95% and 80.6% |  |  |  | 
COc1cc(CCc2cc(NC(=O)c3ccc(N4CC(C)NC(C)C4)cc3)n[nH]2)cc(OC)c1 (stereo not drawn) [AZD4547] (1000 nM) | 123% | 3.02% | 8.97% | 2.48% | 11.9% | 0.72% |  |  |  | 
Cc1nc(Nc2ncc(C(=O)Nc3c(C)cccc3Cl)s2)cc(N2CCN(CCO)CC2)n1 [Dasatinib] |  |  |  |  |  |  | 88.7 nM |  |  | 

Reference: the supplement of paper PMC4862054
